Assay results taken from publication PMC6025358 (Marine Drugs, 2018).

Molecular target: rat α3β4 nAChR (Rattus norvegicus, UniProt P04757+P12392)
Experiment: cell-based
Details: for inhibition at 0.1 µM / inhibition at 1 µM: read-out: Inhibition of ACh-evoked α3β4 nAChR-mediated current

Sequence of rat α3β4 nAChR (P04757 26-499 limits assumed): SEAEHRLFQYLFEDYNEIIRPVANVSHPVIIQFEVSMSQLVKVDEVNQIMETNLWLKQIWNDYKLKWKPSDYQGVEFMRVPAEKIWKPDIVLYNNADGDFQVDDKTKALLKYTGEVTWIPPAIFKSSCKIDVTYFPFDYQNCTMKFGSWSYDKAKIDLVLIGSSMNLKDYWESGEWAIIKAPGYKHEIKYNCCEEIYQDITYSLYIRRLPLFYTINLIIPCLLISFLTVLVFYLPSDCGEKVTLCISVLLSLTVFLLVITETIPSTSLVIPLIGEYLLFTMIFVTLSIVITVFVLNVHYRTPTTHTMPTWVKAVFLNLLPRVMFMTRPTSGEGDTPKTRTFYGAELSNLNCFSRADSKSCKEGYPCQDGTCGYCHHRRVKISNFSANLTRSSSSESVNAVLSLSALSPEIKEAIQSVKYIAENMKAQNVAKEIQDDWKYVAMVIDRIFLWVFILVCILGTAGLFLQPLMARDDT
Sequence of rat α3β4 nAChR (P12392 21-495 limits assumed): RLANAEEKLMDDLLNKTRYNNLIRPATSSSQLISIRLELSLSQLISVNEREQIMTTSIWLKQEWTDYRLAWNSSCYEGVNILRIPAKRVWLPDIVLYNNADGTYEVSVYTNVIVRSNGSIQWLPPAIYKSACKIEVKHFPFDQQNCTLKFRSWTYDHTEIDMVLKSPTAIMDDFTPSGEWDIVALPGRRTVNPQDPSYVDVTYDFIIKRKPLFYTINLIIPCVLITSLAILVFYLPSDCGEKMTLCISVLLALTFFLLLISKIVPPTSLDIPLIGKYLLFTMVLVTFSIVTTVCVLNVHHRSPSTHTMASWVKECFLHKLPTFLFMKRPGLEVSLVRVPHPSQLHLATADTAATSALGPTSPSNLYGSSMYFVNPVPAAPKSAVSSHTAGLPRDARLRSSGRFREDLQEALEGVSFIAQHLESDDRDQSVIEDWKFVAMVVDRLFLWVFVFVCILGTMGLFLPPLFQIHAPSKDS

Structure (SMILES)	inhibition at 0.1 µM [%]	inhibition at 1 µM [%]	IC50 [nM]
CC[C@H](C)[C@@H]1NC(=O)[C@@H]2CCCN2C(=O)[C@H](CO)NC(=O)[C@H](CCSC)NC(=O)[C@H](C)NC(=O)[C@H](CO)NC(=O)[C@@H]2CSSC[C@H](NC(=O)CN)C(=O)N[C@@H](CSSC[C@@H](C(N)=O)NC1=O)C(=O)N[C@@H](CO)C(=O)N[C@@H](Cc1c[nH]cn1)C(=O)N1CCC[C@H]1C(=O)N[C@@H](C(C)C)C(=O)N2 [TxID]	~80	~100	
CC[C@H](C)[C@@H]1NC(=O)[C@@H]2CCCN2C(=O)[C@H](CO)NC(=O)[C@H](CC[S+](C)[O-])NC(=O)[C@H](C)NC(=O)[C@H](CO)NC(=O)[C@@H]2CSSC[C@H](NC(=O)CN)C(=O)N[C@@H](CSSC[C@@H](C(N)=O)NC1=O)C(=O)N[C@@H](CO)C(=O)N[C@@H](Cc1c[nH]cn1)C(=O)N1CCC[C@H]1C(=O)N[C@@H](C(C)C)C(=O)N2 (some centres unmarked) [[MO]TxID]	25	72	245
